Source: patent publication US20250213547A1, “METHODS OF TREATING NEUROLOGICAL DISEASES” (priority 2022, published 2025)
Read-outs that look alike come from different tables or passages of the source.

How the values were obtained:
[1] = both, human, in vivo
Method: The study enrolled 48 subjects in the single rising dose study. Subjects were sorted into six cohorts and randomly assigned to treatment or placebo groups.
A prior study of soticlestat dosing in dogs guided the safety margin of minimal and maximal single dose selection for human subjects. An initial dosage of 10 mg provided a 44-fold safety margin relative to the maximum safe dosage in dogs. […] Each dose trial contained two placebo subjects. Ascending doses were tested in 2 sentinel subjects at a time to determine safety and tolerability before including the full cohort.
The mean values in table 6 with the superscript “a” were derived from n=3 subjects and values with superscript “b” were derived from n=4 subjects.

[2] = Adult DEE patients (Part A/Part B): safety and tolerability; settings: human, in vivo, 60 days
[3] = system: plasma 24HC; test: Single dose pharmacodynamics: plasma 24HC; assay type: in vivo, human
Method: The concentration of 24HC was measured by obtaining an 8 ml blood sample collected 30 minutes pre-dose time and 0.5, 1, 2, 4, 6, 8, 12, and 16 hours prior to dosing day, and then 30 minutes pre-dose time and at times 0.5, 1, 2, 4, 6, 8, 12, 16, 24, 48, 72, and 96 hours post-dose. Plasma 24HC levels were measured by incubating plasma in sodium hydroxide and methanol and then performing liquid-liquid extraction and HPLC-MS/MS multiple reaction monitoring. […] Assay quality control measures, parameter analyses, and statistical analyses were performed as described in example 3. […] All dosage groups returned to 24HC baseline values by 96 hours.

[4] = for Avg. CFBL 24HC / Max. CFBL 24HC: Table 34, ELEKTRA patients, steady-state; for Avg. Ch. f. BL. 24HC / Max. Red. f. BL. 24HC: Table 34A, ELEKTRA (TAK-935-2002)
Description: Other inclusion criteria were body weight ≥10 kg, currently taking a fixed dosage of 1 to 4 antiseizure medications, and failure to remain seizure free after trying at least two antiseizure medications. Convulsive seizures include focal to bilateral tonic-clonic with impaired awareness, hemi-clonic, simultaneous bilateral clonic, and generalized tonic-clonic seizures. Drop seizures can involve the entire body, trunk, or head which leads to falling. […] Approximately 126 patients ages ≥2 and ≤17 years were enrolled in the study. The study included two main phases, a 4-6 week screening and baseline period, and a 20-week treatment period. Patients received doses twice a day in a tablet formulation. The starting dose was adjusted according to the patient's body weight (Table 17).
During the first 8 weeks of treatment patient dosing was a titrated for individual optimization. The remaining 12-weeks of treatment consisted of a maintenance phase. The study began with treating patients ≥9 years of age for one month before treating younger patients. Blood was collected for PK analysis on the first dosage day within one hour of the morning dose, and 30 minutes, and 1, 2, 3, and 4 hours post-dose. Subsequent blood sampling took place before the morning dose and 30 minutes post-dose. Blood samples were obtained at scheduled times for determining PK profile and Tmax, which is the time Cmax was reached. A patient's seizure frequency was recorded before and during the trial to calculate percent change from baseline.
The PK model parameters can be used as a tool to estimate PK and drug exposure in an individual or a population (such as with ELEKTRA), as well as to calculate individualized dosing based on covariates. For example, optimal daily dosing can be calculated using the area under the concentration time curve and clearance values (dose=targetAUC24×CL). Blood sampling at steady-state was limited in the ELEKTRA study, thus some of the PK parameters shown in Table 32 for the ELEKTRA population were simulated by interpolation.
The dots represent the simulation and the numbers below the dot represent the simulated covariate value, while the values above the dots show the percent change from the reference level. The vertical line labeled “ref” depicts the reference level. […] The CV % refers to the coefficient of variation assuming a log-normal distribution, derived as […], where σ denotes the standard deviation of the log-transformed values.
The term AUC(0-tau) stands for AUC to the end of the dosing period. The covariate effects were analyzed using exposure parameters AUC, Cmax, and Ctrough.

[5] = Eq. Dose 100 mg (N = 70), Median
[6] = Eq. Dose 100 mg (N = 70), Range
[7] = Eq. Dose 200 mg (N = 68), Median
[8] = Eq. Dose 200 mg (N = 68), Range
[9] = Eq. Dose 300 mg (N = 56), Median
[10] = Eq. Dose 300 mg (N = 56), Range
[11] = Equiv. Dose 100 mg BID, N = 70, Mean
[12] = Equiv. Dose 100 mg BID, N = 70, Median
[13] = Equiv. Dose 100 mg BID, N = 70, Range
[14] = Equiv. Dose 200 mg BID, N = 68, Mean
[15] = Equiv. Dose 200 mg BID, N = 68, Median
[16] = Equiv. Dose 200 mg BID, N = 68, Range
[17] = Equiv. Dose 300 mg BID, N = 56, Mean
[18] = Equiv. Dose 300 mg BID, N = 56, Median
[19] = Equiv. Dose 300 mg BID, N = 56, Range

O=C(c1cccnc1-c1ccncc1)N1CCC(O)(Cc2ccccc2)CC1 [soticlestat]
number of TEAEs reported [1]: 29 TEAEs | Insomnia, n participants [2]: 3 n | Lethargy, n participants [2]: 2 n | Seizure, n participants [2]: 3 n | maximum 24HC decrease ([3]; 900 mg single dose, 16 hours post-dose): approximately 23% | AUEC96 decrease compared to placebo ([3]; single dose): approximately 28.7% | Avg. CFBL 24HC ([4]; Eq. Dose 100 mg (N = 70), Mean): −69.4% | Max. CFBL 24HC ([4]; Eq. Dose 100 mg (N = 70), Mean): −69.6% | Avg. CFBL 24HC [4, 5]: −70.8% | Max. CFBL 24HC [4, 5]: −71% | Avg. CFBL 24HC [4, 6]: −86.9-−42.2% | Max. CFBL 24HC [4, 6]: −87-−42.6% | Avg. CFBL 24HC ([4]; Eq. Dose 200 mg (N = 68), Mean): −78.6% | Max. CFBL 24HC ([4]; Eq. Dose 200 mg (N = 68), Mean): −78.7% | Avg. CFBL 24HC [4, 7]: −80.7% | Max. CFBL 24HC [4, 7]: −80.8% | Avg. CFBL 24HC [4, 8]: −89.7-−54.7% | Max. CFBL 24HC [4, 8]: −89.8-−55% | Avg. CFBL 24HC ([4]; Eq. Dose 300 mg (N = 56), Mean): −82% | Max. CFBL 24HC ([4]; Eq. Dose 300 mg (N = 56), Mean): −82.1% | Avg. CFBL 24HC [4, 9]: −84% | Max. CFBL 24HC [4, 9]: −84.1% | Avg. CFBL 24HC [4, 10]: −90.9-−64.1% | Max. CFBL 24HC [4, 10]: −90.9-−64.4% | Avg. Ch. f. BL. 24HC [4, 11]: −67.38% | Max. Red. f. BL. 24HC [4, 11]: −67.65% | Avg. Ch. f. BL. 24HC [4, 12]: −70.08% | Max. Red. f. BL. 24HC [4, 12]: −70.39% | Avg. Ch. f. BL. 24HC [4, 13]: −86.70-−10.05% | Max. Red. f. BL. 24HC [4, 13]: −86.77-−10.19% | Avg. Ch. f. BL. 24HC [4, 14]: −76.77% | Max. Red. f. BL. 24HC [4, 14]: −76.97% | Avg. Ch. f. BL. 24HC [4, 15]: −80.21% | Max. Red. f. BL. 24HC [4, 15]: −80.37% | Avg. Ch. f. BL. 24HC [4, 16]: −89.03-−18.58% | Max. Red. f. BL. 24HC [4, 16]: −89.07-−18.80% | Avg. Ch. f. BL. 24HC [4, 17]: −79.95% | Max. Red. f. BL. 24HC [4, 17]: −80.11% | Avg. Ch. f. BL. 24HC [4, 18]: −82.50% | Max. Red. f. BL. 24HC [4, 18]: −82.65% | Avg. Ch. f. BL. 24HC [4, 19]: −89.98-−23.43% | Max. Red. f. BL. 24HC [4, 19]: −90.00-−23.69%
